Data reported in PMC7037393, “Synthesis, Structural, and Cytotoxic Properties of New Water-Soluble Copper(II) Complexes Based on 2,9-Dimethyl-1,10-Phenanthroline and Their One Derivative Containing 1,3,5-Triaza-7-Phosphaadamantane-7-Oxide” (Molecules, 2020).

How the values were obtained:
NHDF cells = assay: Cytotoxicity on normal human dermal fibroblasts, quantitative suspension test according to EN 14476 (DAPI/propidium iodide); type: cell-based; conditions: observed 4 days, aqua media
Experimental: (§1) Normal human dermal fibroblasts (NHDF) (PromoCell, C-12302) were used as normal cells and LoVo (human colorectal adenocarcinoma, ATCC® CCL-229™), A549 (human lung carcinoma, ATCC, No. CCL-185 TM), MCF-7 (human breast adenocarcinoma, ATCC, No. HTB-22^TM) and HeLa (human cervix carcinoma, ATCC, No. CCL-2 TM) were used as cancer cells. They were cultured in DMEM, DMEM–F12 or EMEM (Lonza, CA, USA). Media were supplemented with 10% FBS (Biological Industries, Kibbutz Beit-Haemek, Israel), 2 mM L-glutamine (Biological Industries, Israel), 100 U/mL of penicillin and 100 µg/mL of streptomycin (Sigma, Neustadt an der Weinstrasse, Germany).
(§2) The 100 μL of suspension of NHDF, A549, HeLa, LoVo, and MCF7 cells at a density of 4 × 10^4 cells mL^−1 were incubated in a 96-well polystyrene plate (NUNC, Denmark) for 24 h. Product test solutions were prepared in DMEM, DMEM–F12, or EMEM supplemented with additional 2% FBS and 2 mM L-glutamine. Solutions of the reagents at concentrations from 460 (for 1), 454 (2), […] (3), 1242 (Cu(NO3)2), 1732 (PTA=O), and 1440 µM (dmphen) to 4.60 × 10^−6, 4.54 × 10^−6, 4.69 × 10^−6, 1.24 × 10^−5, 1.73 × 10^−5, and 1.44 × 10^−5 µM, respectively, were prepared and transferred (100 μL) into cell culture units (wells of microtiter plates) containing monolayer of cells. Eight units were inoculated with each dilution. Plates were incubated in 37 °C, 5% CO2 and observed daily for 4 days for the development of cytotoxic effect, using an inverted microscope (Olympus Corp., Hamburg, Germany, Axio Observer, Carl Zeiss MicroImaging GmbH). Then the wells were washed in phosphate buffered saline (PBS) and stained using DAPI (4′,6-diamidino-2-phenylindole) and propidium iodide (Merck, Darmstadt, Germany). The study used the fact that DAPI is able to be combined with cellular DNA, permeate through the membrane of cell, rapidly enter the nucleus of living cells and bind with DNA to form a DAPI-DNA complex. […] In cell culture these are cells that are apoptotic or damaged by any physical or chemical agent. Therefore, if these two fluorochrome are given at the same time, DAPI will get to healthy cells faster, while propidium iodide will stain dead or dying cells. The calculation of the ratio of cells counted on a specific area, allows to determine the potency of a substance in inhibiting a specific biological function (IC50).

[1] = system: MCF7 (human breast adenocarcinoma); assay: Cytotoxicity on MCF7 cells, quantitative suspension test according to EN 14476; type: cell-based; conditions: observed 4 days, aqua media
Experimental: as §1, §2

[2] = system: LoVo (human colorectal adenocarcinoma); assay: Cytotoxicity on LoVo cells, quantitative suspension test according to EN 14476; type: cell-based; conditions: observed 4 days, aqua media
Experimental: as §1, §2

[3] = target: T1, human apo-transferrin (apo-Tf) (Homo sapiens, UniProt P02787); assay: Circular dichroism of apo-transferrin, alpha-helix content; type: binding; conditions: free protein 19.80%
T1 construct: purchased Sigma-Aldrich
Experimental: Circular dichroism (CD) measurements in the far UV region were performed to determine the effect of copper complexes on the apo-transferrin secondary structure. A characteristic for α-helical structure of protein negative bands was visible in the CD spectrum at wavelengths of 210 and 220 nm (Figure 7) and were assigned n-π* transitions peptide bonds. […] The α-helix content the free protein was equal to 19.80%.
High purity apo-transferrin (≥ 98%, Sigma-Aldrich, Steinheim, North Rhine-Westphalia, Germany) was used without prior purification. The stock solutions of the complexes were prepared in demineralized water (1 and 2) or ethanol (3). The apo-Tf was dissolved in PBS (pH 7.40). […] Samples were incubated at 300 and 310 K for 5 min. The apo-Tf concentration was determined using ε (280 nm) = 11.2 mM^−1 × cm^−1.
Circular dichroism measurements were carried out on a Jasco J-715 spectropolarimeter (Tokyo, Japan) in the range of 190–250 nm using 0.1-cm cuvettes. The α-helical content of the protein was calculated from the Equations (9) and (10):(9) MRE209= ObservedCDmdeg/Cp· n· l ·10 (10) α−helix %= −MRE209−4000/33000−4000×100 where MRE is the mean residue ellipticity, Cp is the molar concentration of the protein, n the number of amino acid residues (679), and l is the path length (0.1 cm).

[4] = Octanol-water partition coefficient (log P), UV-Vis; type: physicochemical; conditions: room temperature, 10^−5 M
Experimental: The log P values consistent to the octanol-water partition coefficient were adjusted to the solubility properties of the compounds [94]. Complexes 1–3 were dissolved in water, previously saturated with octanol with concentrations 10^−5 M. Into a 25-mL flask at room temperature with a magnetic stir bar was introduced initially 5 mL of octanol previously saturated with water and then 5 mL of the complex solutions in water. A two-phase mixture was stirred vigorously for 15 min and samples, which were measured by UV-Vis spectroscopy, were taken from the separated phases.

[5] = molar ratio apo-Tf:complex 1:20

T1 sequence (P02787 20-698): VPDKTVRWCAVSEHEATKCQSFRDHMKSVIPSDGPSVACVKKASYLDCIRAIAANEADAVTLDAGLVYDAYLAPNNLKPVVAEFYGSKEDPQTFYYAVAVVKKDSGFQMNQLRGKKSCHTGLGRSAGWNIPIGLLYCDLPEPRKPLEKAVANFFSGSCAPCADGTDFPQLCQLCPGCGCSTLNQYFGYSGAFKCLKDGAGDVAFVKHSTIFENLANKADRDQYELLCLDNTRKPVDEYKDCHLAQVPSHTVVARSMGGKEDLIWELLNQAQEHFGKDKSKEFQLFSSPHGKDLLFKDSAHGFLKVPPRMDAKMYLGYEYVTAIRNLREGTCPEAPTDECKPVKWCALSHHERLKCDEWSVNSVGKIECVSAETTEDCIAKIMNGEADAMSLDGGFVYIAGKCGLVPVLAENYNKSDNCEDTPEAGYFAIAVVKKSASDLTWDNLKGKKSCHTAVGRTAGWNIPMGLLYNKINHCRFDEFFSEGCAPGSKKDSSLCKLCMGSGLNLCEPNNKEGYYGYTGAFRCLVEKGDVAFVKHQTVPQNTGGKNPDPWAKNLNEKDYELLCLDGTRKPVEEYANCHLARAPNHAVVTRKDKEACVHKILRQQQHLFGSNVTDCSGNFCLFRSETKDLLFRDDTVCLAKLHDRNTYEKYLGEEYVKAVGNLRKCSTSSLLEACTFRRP

## Cc1ccc2ccc3ccc(C)nc3c2n1.F[P-](F)(F)(F)(F)F.O=P12CN3CN(CN(C3)C1)C2.O=[N+]([O-])[O-].[Cu+2] [Complex 1, [Cu(NO3)(PTA=O)(dmphen)][PF6]]
NHDF cells
  IC50: 570 ± 80 nM
[1]
  IC50: 570 ± 80 nM
[2]
  IC50: 570 ± 80 nM
[3]; [5]
  α-helix content of apo-Tf upon binding: 19.07%
[4]
  log P (octanol-water partition coefficient): 0.90

## Cc1ccc2ccc3ccc(C)nc3c2n1.Cc1ccc2ccc3ccc(C)nc3c2n1.F[P-](F)(F)(F)(F)F.[Cl-].[Cu+2] [Complex 2, [Cu(Cl)(dmphen)2][PF6]]
NHDF cells
  IC50: 230 ± 30 nM
[1]
  IC50: 570 ± 80 nM
[2]
  IC50: 1130 ± 170 nM
[3]; [5]
  α-helix content of apo-Tf upon binding: 18.00%
[4]
  log P (octanol-water partition coefficient): 1.75

## CC#N.Cc1ccc2ccc3ccc(C)nc3c2n1.O=[N+]([O-])[O-].O=[N+]([O-])[O-].[Cu+2] [Complex 3, [Cu(NO3)2(dmphen)]∙MeCN]
NHDF cells
  IC50: 1720 ± 250 nM
[1]
  IC50: 3450 ± 510 nM
[2]
  IC50: 1720 ± 250 nM
[3]; molar ratio apo-Tf:complex 1:10
  α-helix content of apo-Tf upon binding: 17.05%
[3]; [5]
  α-helix content of apo-Tf upon binding: 8.16%
[4]
  log P (octanol-water partition coefficient): 1.11
